The text below walks through data of patent US7279325B2, “Method for identifying antagonist compounds of the estrogen-related receptor 3 (ERR3) by using the x-ray structural coordinates of the ligand binding domain” (priority 2002, dated 2007).

For test [1], the system named is Gal4-ERR3 mutants (A272F, A272L, F435L, L345I-F435L-F450L). Nature of the test: Transient transfection luciferase reporter assay, Gal4-ERR3 mutants in COS-1 cells. The format is cell-based, human. Conditions: 10^−6M 4-OHT. As for the experimental part: FIG. 6: represents the transcriptional activities of wild-type and mutant ERR3 fusion proteins in transient transfection assays, wherein (A) COS-1 cells were transfected in 24-well plates with 250 ng per well of Gal4(5×)-TATA-LUC reporter and 50 ng of wt or mutant pCMX-Gal4-ERR3 expression plasmid. […] (B) Experiments were performed as described in (A) using 250 ng per well of Gal4(3×)-TK-LUC reporter plasmid and 50 ng of wt or mutant Gal4-ERR3 expression plasmid. […] FIGS. A to C represent an average of three independent experiments. The activity of the Gal4 DBD control was set to one.
COS-1 and BHK cells were cultured in DMEM supplemented with 5% FCS, penicillin, streptomycin, and glutamine. Neuro2A cells were cultured in EMEM supplemented with 10% FCS, penicillin, streptomycin, glutamine, and non-essential amino acids. Transient transfection assays were carried out in 24-well plates (0.5×10^5 cells per well for COS-1 and Neuro2A cells, 0.25×10^5 cells per well for BHK cells) using the standard calcium phosphate coprecipitation technique as described in Greiner et al. (Greiner et al., 1996). Cells were transfected with 250 ng of Gal4(5×)-TATA-LUC, Gal4(3×)-TK-LUC, or ERE(2×)-TK-LUC reporter plasmid and 50 ng per well of pCMX-Gal4-ERR3 or pCMX-ERR3 expression plasmid. The empty plasmids pCMX-Gal4 and pCMX served as control. […]
On the technique in general: Reporter assays use an easily measured gene product as a stand-in for the process of interest.

In test [2] the target is full length ERR3 (Homo sapiens, UniProt P62508). The test can be described thus: Transient transfection assay, full length ERR3 with ERE(2×)-TK-LUC reporter. The format is cell-based. The following applies: in the presence of 4-OHT. As for the experimental part: COS-1 and BHK cells were cultured in DMEM supplemented with 5% FCS, penicillin, streptomycin, and glutamine. Neuro2A cells were cultured in EMEM supplemented with 10% FCS, penicillin, streptomycin, glutamine, and non-essential amino acids. Transient transfection assays were carried out in 24-well plates (0.5×10^5 cells per well for COS-1 and Neuro2A cells, 0.25×10^5 cells per well for BHK cells) using the standard calcium phosphate coprecipitation technique as described in Greiner et al. (Greiner et al., 1996). Cells were transfected with 250 ng of Gal4(5×)-TATA-LUC, Gal4(3×)-TK-LUC, or ERE(2×)-TK-LUC reporter plasmid and 50 ng per well of pCMX-Gal4-ERR3 or pCMX-ERR3 expression plasmid. The empty plasmids pCMX-Gal4 and pCMX served as control. […] Luciferase activity was assayed as described in Greiner et al. (1996). All experiments were repeated at least three times. B. Results B.1.

For test [3], the target named is T1, ERR3 (Homo sapiens, UniProt P62508).
T1 sequence (P62508 1-458): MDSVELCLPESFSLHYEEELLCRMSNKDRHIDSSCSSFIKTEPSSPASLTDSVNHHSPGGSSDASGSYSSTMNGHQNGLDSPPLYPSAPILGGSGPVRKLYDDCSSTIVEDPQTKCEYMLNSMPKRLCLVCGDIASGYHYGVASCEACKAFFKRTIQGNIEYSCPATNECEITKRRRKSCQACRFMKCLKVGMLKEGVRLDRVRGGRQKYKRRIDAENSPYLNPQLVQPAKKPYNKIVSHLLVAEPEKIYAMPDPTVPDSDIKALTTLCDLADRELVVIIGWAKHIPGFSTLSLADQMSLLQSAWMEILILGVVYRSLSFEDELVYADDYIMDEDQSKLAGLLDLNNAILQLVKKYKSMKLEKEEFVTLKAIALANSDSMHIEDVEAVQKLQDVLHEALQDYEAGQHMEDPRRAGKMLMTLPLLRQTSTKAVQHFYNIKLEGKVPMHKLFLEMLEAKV
Conditions: Coward et al. (2001); cited from earlier work.

Test [4] concerns the target T2, ERR2 (Homo sapiens, UniProt O95718).
T2 sequence (O95718 1-433): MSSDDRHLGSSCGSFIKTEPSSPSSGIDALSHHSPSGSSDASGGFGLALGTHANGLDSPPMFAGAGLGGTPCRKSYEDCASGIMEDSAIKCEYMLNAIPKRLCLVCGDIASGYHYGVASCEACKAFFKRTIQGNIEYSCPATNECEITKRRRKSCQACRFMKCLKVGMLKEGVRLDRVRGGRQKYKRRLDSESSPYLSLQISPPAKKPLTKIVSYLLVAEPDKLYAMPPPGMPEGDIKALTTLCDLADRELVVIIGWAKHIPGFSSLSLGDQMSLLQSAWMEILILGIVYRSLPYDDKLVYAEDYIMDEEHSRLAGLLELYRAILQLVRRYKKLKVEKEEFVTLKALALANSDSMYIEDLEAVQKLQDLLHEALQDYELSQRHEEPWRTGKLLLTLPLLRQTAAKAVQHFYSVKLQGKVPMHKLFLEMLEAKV
The following applies: Coward et al. (2001); cited from earlier work.

The target in test [5] is T1, ERR3. Conditions: Coward et al. (2001); cited from earlier work. This is another data set of the same source.

Entries after “also recorded” stand apart in the source; their conditions may differ.

For 4-hydroxytamoxifen [4-OHT], in test [1], the “transcriptional activity of Gal4-ERR3(F435L) and Gal4-ERR3(L345I-F435L-F450L)” value is on record as “antagonizes”. Further, the “active repression of transcription of the TK promoter by full length ERR3” value in test [2] is “does not actively repress transcription”. Besides, in test [3], the “transactivation / transcriptional activity mediated by ERR3” value is “repressed; also recorded: selectively block”. Besides, in test [4], the “binding to ERR2” value is reported as “binds”. In test [5], the “affinities of binding to ERR3” value is “submicromolar”.
